This passage reports IC50 results from patent US9493486B2, “Diazaspirocycloalkane and azaspirocycloalkane” (Hoffmann-La Roche Inc., priority 2012, dated 2016).

This assay has as its target ATX (human His-tagged) (Homo sapiens (Human), UniProt Q13822). Put plainly: Human ATX enzyme inhibition assay (fluorescence quenching, MR121 substrate). The class given is biochemical. Conditions: 30 nM ATX, 1 μM MR121 substrate, 30° C. The text has this:
Human ATX Enzyme Inhibition Assay
Assay working solutions were made as follows:

On to `O=C(c1ccc2[nH]nnc2c1)N1CC2(CCN(C(=O)[C@@H]3C[C@H]3c3cc(F)cc(F)c3)CC2)C1` (relative stereo) [Example 6.5, (2-(1H-benzo[d][1,2,3]triazole-5-carbonyl)-2,7-diazaspiro[3.5]nonan-7-yl)(trans-2-(3,5-difluorophenyl)cyclopropyl)methanone], for which the IC50 amounted to 3220 nM. `O=C(OCc1cc(Cl)cc(Cl)c1)N1CCC2(CC1)CN(C(=O)c1ccc3[nH]nnc3c1)C2` [Example 1, 3,5-Dichlorobenzyl 2-(1H-benzo[d][1,2,3]triazole-5-carbonyl)-2,7-diazaspiro[3.5]nonane-7-carboxylate] gave an IC50 of 15 nM. In the case of `O=C(OCc1ccccc1)N1CCC2(CC1)CN(C(=O)c1ccc3[nH]nnc3c1)C2` [Example 1.01, benzyl 2-(1H-benzo[d][1,2,3]triazole-5-carbonyl)-2,7-diazaspiro[3.5]nonane-7-carboxylate], inhibition was half-maximal at 2400 nM (IC50). In turn, `O=C(OCc1ccc(Cl)cc1)N1CCC2(CC1)CN(C(=O)c1ccc3[nH]nnc3c1)C2` [Example 1.02, 4-chlorobenzyl 2-(1H-benzo[d][1,2,3]triazole-5-carbonyl)-2,7-diazaspiro[3.5]nonane-7-carboxylate] registered an IC50 of 129 nM.

The compound `O=C(OCc1cccc(Cl)c1)N1CCC2(CC1)CN(C(=O)c1ccc3[nH]nnc3c1)C2` [Example 1.03, 3-chlorobenzyl 2-(1H-benzo[d][1,2,3]triazole-5-carbonyl)-2,7-diazaspiro[3.5]nonane-7-carboxylate] had a half-inhibitory concentration (IC50) of 201 nM. Regarding `O=C(CCc1cc(Cl)cc(Cl)c1)N1CCC2(CC1)CN(C(=O)c1ccc3[nH]nnc3c1)C2` [Example 1.04, 1-(2-(1H-benzo[d][1,2,3]triazole-5-carbonyl)-2,7-diazaspiro[3.5]nonan-7-yl)-3-(3,5-dichlorophenyl)propan-1-one], the IC50 was 115 nM. As to `Nc1ccc(C(=O)N2CC3(CCN(C(=O)CCc4cc(Cl)cc(Cl)c4)CC3)C2)cc1O` [Example 1.05, 1-(2-(4-amino-3-hydroxybenzoyl)-2,7-diazaspiro[3.5]nonan-7-yl)-3-(3,5-dichlorophenyl)propan-1-one], the half-inhibitory concentration (IC50) worked out at 1040 nM. With `Nc1ccc(C(=O)N2CC3(CCN(C(=O)OCc4cc(Cl)cc(Cl)c4)CC3)C2)cc1O` [Example 1.06, 3,5-dichlorobenzyl 2-(4-amino-3-hydroxybenzoyl)-2,7-diazaspiro[3.5]nonane-7-carboxylate] the figure was 107 nM. Consider `O=C(NC1CC2(C1)CN(C(=O)OCc1ccccc1)C2)c1ccc2[nH]nnc2c1` [Example 1.07, 6-[(1H-benzotriazole-5-carbonyl)-amino]-2-aza-spiro[3.3]heptane-2-carboxylic acid benzyl ester], for which the IC50 was determined as 4140 nM. In turn, `O=C(NC1CC2(C1)CN(C(=O)CCCc1ccccc1)C2)c1ccc2[nH]nnc2c1` [Example 1.08, N-(2-(4-phenylbutanoyl)-2-azaspiro[3.3]heptan-6-yl)-1H-benzo[d][1,2,3]triazole-5-carboxamide] registered a half-inhibitory concentration (IC50) of 3350 nM. For the compound `CS(=O)(=O)c1cc(Cl)cc(COC(=O)N2CCC3(CC2)CN(C(=O)c2ccc4[nH]nnc4c2)C3)c1` [Example 1.09, 3-chloro-5-(methylsulfonyl)benzyl 2-(1H-benzo[d][1,2,3]triazole-5-carbonyl)-2,7-diazaspiro[3.5]nonane-7-carboxylate], half-maximal inhibition (IC50) required 50.5 nM. For `O=C(NC1CC2(C1)CN(C(=O)c1ccc3[nH]nnc3c1)C2)OCc1ccccc1` [Example 1.10, [2-(1H-benzotriazole-5-carbonyl)-2-aza-spiro[3.3]hept-6-yl]-carbamic acid benzyl ester], the IC50 stood at 3700 nM. In the case of `O=C(NC1CC2(C1)CN(C(=O)CCc1cc(Cl)cc(Cl)c1)C2)c1ccc2[nH]nnc2c1` [Example 1.11, N-(2-(3-(3,5-dichlorophenyl)propanoyl)-2-azaspiro[3.3]heptan-6-yl)-1H-benzo[d][1,2,3]triazole-5-carboxamide], it took 155 nM to reach half-maximal inhibition (IC50).

Take `O=C(NC1CC2(C1)CN(C(=O)c1ccc3[nH]nnc3c1)C2)OCc1cc(Cl)cc(Cl)c1` [Example 1.12, [2-(1H-benzotriazole-5-carbonyl)-2-aza-spiro[3.3]hept-6-yl]-carbamic acid 3,5-dichloro-benzyl ester]: it took 35 nM to reach half-maximal inhibition (IC50). As to `O=C(NC1CC2(C1)CN(C(=O)OCc1cc(Cl)cc(Cl)c1)C2)c1ccc2[nH]nnc2c1` [Example 1.13, 6-[(1H-benzotriazole-5-carbonyl)-amino]-2-aza-spiro[3.3]heptane-2-carboxylic acid 3,5-dichloro-benzyl ester], half-maximal inhibition (IC50) required 5430 nM. With `O=C(OCc1cc(Cl)cc(Cl)c1)N1CCC2(C1)CN(C(=O)c1ccc3[nH]nnc3c1)C2` [Example 1.14, 3,5-dichlorobenzyl 2-(1H-benzo[d][1,2,3]triazole-5-carbonyl)-2,6-diazaspiro[3.4]octane-6-carboxylate] the figure was 73.7 nM. Compound `O=C(OCc1cc(Cl)cc(Cl)c1)N1CC2(CCN(C(=O)c3ccc4[nH]nnc4c3)CC2)C1` [Example 1.15, 3,5-dichlorobenzyl 7-(1H-benzo[d][1,2,3]triazole-5-carbonyl)-2,7-diazaspiro[3.5]nonane-2-carboxylate] yielded a concentration for half-maximal inhibition (IC50) of 64.5 nM. Take `CS(=O)(=O)c1cc(Cl)cc(COC(=O)N2CCC3(CC2)CN(C(=O)c2ccc(S(N)(=O)=O)cc2)C3)c1` [Example 1.17, 3-chloro-5-(methylsulfonyl)benzyl 2-(4-sulfamoylbenzoyl)-2,7-diazaspiro[3.5]nonane-7-carboxylate]: the IC50 amounted to 729 nM. On to `CS(=O)(=O)c1cc(Cl)cc(COC(=O)N2CCC3(CC2)CN(C(=O)c2cccc(S(N)(=O)=O)c2)C3)c1` [Example 1.18, 3-chloro-5-(methylsulfonyl)benzyl 2-(3-sulfamoylbenzoyl)-2,7-diazaspiro[3.5]nonane-7-carboxylate], for which 625 nM corresponded to half-maximal inhibition (IC50). Regarding `O=C(OCc1cc(Cl)cc(Cl)c1)N1CCC2(CCN(C(=O)c3ccc4[nH]nnc4c3)CC2)C1` [Example 1.19, 3,5-dichlorobenzyl 8-(1H-benzo[d][1,2,3]triazole-5-carbonyl)-2,8-diazaspiro[4.5]decane-2-carboxylate], the IC50 was determined as 39.5 nM.

Compound `O=C(OCc1cc(F)cc(OC(F)(F)F)c1)N1CCC2(CCCN(C(=O)c3ccc4[nH]nnc4c3)C2)C1` (centres unmarked) [Example 1.20, 3-fluoro-5-(trifluoromethoxy)benzyl 7-(1H-benzo[d][1,2,3]triazole-5-carbonyl)-2,7-diazaspiro[4.5]decane-2-carboxylate] yielded an IC50 of 120 nM. `O=C(c1ccc2[nH]nnc2c1)N1CC2(CCN(S(=O)(=O)CCc3cccc(Cl)c3)CC2)C1` [Example 1.21, (1H-benzotriazol-5-yl)-{7-[2-(3-chloro-phenyl)-ethanesulfonyl]-2,7-diaza-spiro[3.5]non-2-yl}-methanone] had an IC50 of 821 nM. This IC50 lies about 6.8-fold higher than the previous one.

Compound `NS(=O)(=O)c1ccc(C(=O)N2CC3(CCN(C(=O)OCc4ccc(OC(F)(F)F)cc4)CC3)C2)cc1` [Example 1.22, 4-(trifluoromethoxy)benzyl 2-(4-sulfamoylbenzoyl)-2,7-diazaspiro[3.5]nonane-7-carboxylate] yielded an IC50 of 15 nM. Against the preceding compound, the IC50 is about 55-fold lower.

Regarding `NS(=O)(=O)c1ccc(C(=O)N2CC3(CCN(C(=O)OCc4ccc(OC(F)(F)F)cc4F)CC3)C2)cc1` [Example 1.23, 2-fluoro-4-(trifluoromethoxy)benzyl 2-(4-sulfamoylbenzoyl)-2,7-diazaspiro[3.5]nonane-7-carboxylate], the IC50 is 1 nM. Consider `O=C(CCc1ccc(OC(F)(F)F)cc1)N1CCC2(CC1)CN(C(=O)c1ccc3[nH]nnc3c1)C2` [Example 1.24, 1-(2-(1H-benzo[d][1,2,3]triazole-5-carbonyl)-2,7-diazaspiro[3.5]nonan-7-yl)-3-(4-(trifluoromethoxy)phenyl)propan-1-one], for which the IC50 stood at 12 nM. `CC(C)c1cc(C#N)ccc1OCC(=O)N1CCC2(CC1)CN(C(=O)C1CCc3[nH]nnc3C1)C2` (centres unmarked) [Example 1.25, 3-isopropyl-4-(2-oxo-2-(2-(4,5,6,7-tetrahydro-1H-benzo[d][1,2,3]triazole-5-carbonyl)-2,7-diazaspiro[3.5]nonan-7-yl)ethoxy)benzonitrile] displayed a half-inhibitory concentration (IC50) of 74 nM. `CC(C)c1cc(Cl)ccc1OCC(=O)N1CCC2(CC1)CN(C(=O)c1ccc3[nH]nnc3c1)C2` [Example 1.26, 1-(2-(1H-benzo[d][1,2,3]triazole-5-carbonyl)-2,7-diazaspiro[3.5]nonan-7-yl)-2-(4-chloro-2-isopropylphenoxy)ethanone]: the IC50 stood at 8 nM. The compound `CC(C)c1cc(Cl)ccc1OCC(=O)N1CCC2(CC1)CN(C(=O)C1CCc3[nH]nnc3C1)C2` (centres unmarked) [Example 1.27, 2-(4-chloro-2-isopropylphenoxy)-1-(2-(4,5,6,7-tetrahydro-1H-benzo[d][1,2,3]triazole-5-carbonyl)-2,7-diazaspiro[3.5]nonan-7-yl)ethanone] showed an IC50 of 41 nM.

The compound `O=C(CCc1ccc(OC(F)(F)F)cc1)N1CCC2(CC1)CN(C(=O)C1CCc3[nH]nnc3C1)C2` (centres unmarked) [Example 1.28, 1-(2-(4,5,6,7-tetrahydro-1H-benzo[d][1,2,3]triazole-5-carbonyl)-2,7-diazaspiro[3.5]nonan-7-yl)-3-(4-(trifluoromethoxy)phenyl)propan-1-one] registered a concentration for half-maximal inhibition (IC50) of 110 nM. Compared with the last compound, the IC50 is about 2.7-fold higher.

In the case of `O=C(OCc1cc(Cl)cc(Cl)c1)N1CCC2(C1)CN(C(=O)c1ccc3[nH]c(=O)oc3c1)C2` [Example 2, 3,5-Dichlorobenzyl 2-(2-oxo-2,3-dihydro-benzo[d]oxazole-6-carbonyl)-2,6-diazaspiro[3.4]octane-6-carboxylate], the IC50 turned out to be 26 nM. Next, `CS(=O)(=O)c1cc(Cl)cc(COC(=O)N2CCC3(CC2)CN(C(=O)c2ccc4[nH]c(=O)oc4c2)C3)c1` [Example 2.1, 3-chloro-5-(methylsulfonyl)benzyl 2-(2-oxo-2,3-dihydrobenzo[d]oxazole-6-carbonyl)-2,7-diazaspiro[3.5]nonane-7-carboxylate]: 38 nM; `O=C(OCc1cc(Cl)cc(Cl)c1)N1CC2(CCN(C(=O)c3ccc4[nH]c(=O)oc4c3)CC2)C1` [Example 2.2, 7-(2-oxo-2,3-dihydro-benzooxazole-6-carbonyl)-2,7-diaza-spiro[3.5]nonane-2-carboxylic acid 3,5-dichloro-benzyl ester]: 13.7 nM.
